In patent US9169223B2, “Functionalised antifouling compounds and use thereof” (Agency for Science, Technology and Research, priority 2010, dated 2015):
In brackets after ≈: the same amount, converted by molar mass. Read-outs that look alike come from different tables or passages of the source.

What was measured:
barnacle cyprids = test: Settlement assay with barnacle cyprids; format: in vivo, Amphibalanus amphitrite; details: for IC50: Amphibalanus amphitrite, 24 h; for TR (LD50/ED50): therapeutic ratio, LD50 (nauplii) / ED50 (cyprids)
Procedure: (§1) Biological assays were conducted with larval barnacles. Barnacles are dominant and tenacious members of marine fouling communities, and often serve as a substrate for less resistant organisms. Therefore, historically they have been used as a model organism for antifouling studies. To determine the biological response of larvae to test compounds, two bioassays were performed: settlement (using settlement stage cyprids), and toxicity (using nauplii).
(§2) Stock solutions of each compound were made at 50 mg/ml. Pure compounds were diluted in DMSO and sonicated. Stock solutions were stored at −20° C. in 4 ml amber screw cap vials until use. For bioassays, a small amount of stock solution was diluted in 1 μm filtered seawater (in a glass scintillation vial). The solution was then sonicated for 10 minutes. To obtain the desired concentration range, serial dilutions of the test solution were made. As control, a serial dilution of the equivalent amounts of DMSO in seawater was used.
Nauplii were cultured as described above, and then reared at 25° C. on an algal mixture of 1:1 v/v of Tetraselmis suecica and Chaetoceros muelleri (approximately density 5×10^5 cells per ml). Under these conditions, nauplii typically metamorphose to cyprids in 5 days. Cyprids were aged at 4° C. for 2 days.
Settlement assays were conducted in 7 ml neutral glass vials (Samco® T103/V1; 34×23 mm diameter). For assays, each solution was made at twice the desired final concentration; 0.5 ml of this solution was transferred to vials. To each vial, cyprids were added by transferring 0.5 ml filtered seawater containing 20-40 aged cyprids. As in toxicity assays: each compound at each concentration was run in triplicate with cyprids from a single batch; two controls (filtered seawater and DMSO) were run along with each assays; and the overall assay was conducted twice, using two different batches of cyprids.
Assays were conducted for 24 hours, after which time the number of settled cyprids, the number of free swimming (unsettled) cyprids, and the number of dead cyprids were counted for each vial. Both metamorphosed, juvenile barnacles and cyprids that had committed to settlement (glued themselves to the vial), but had not yet metamorphosed, were counted as ‘settled’. Data was expressed as percent settlement. […] If ED50 could not be calculated using probit analysis, values were extrapolated based on plotted data.

[1] = tested on: stage II naupliar larvae of the barnacle Amphibalanus amphitrite; test: Toxicity assay with barnacle nauplii; format: in vivo
Procedure: as §1, with “nauplii). Procedures followed methods standard in the field, which were first described by Rittschof et al. (1992).” for “nauplii).”
as §2
Toxicity assays employed stage II naupliar larvae of the barnacle Amphibalanus amphitrite (previously Balanus amphitrite: Pitombo, 2004). Assay procedures were modified from Rittschof et al. (1992). Adult A. amphitrite were collected from inter-tidal areas near the Kranji mangrove, Singapore. Larval culture was based on Rittschof et al. (1984). Following collection, nauplii were concentrated for use in bioassays by placing a fiber optic light source at one side of the container, and pipetting from the resulting dense cloud of nauplii.
In order to determine LD50 values for each compound, compounds were tested over a range of concentrations between 0-50 μg/ml. For each assay, each compound at each concentration was tested in triplicate with a single batch of nauplii. The overall assay was conducted twice, using two different batches of nauplii. Two controls were run along with each assay (in triplicate): filtered seawater only, and DMSO at […] (since DMSO was used as a solvent for test compounds, this concentration is equivalent to the concentration of DMSO in the highest test compound concentration).
For assays, approximately 20 nauplii (in 50 μl filtered seawater) were added to 1 ml test solution or control, in a 2 ml glass vial (La Pha Pack® PN 11-14-0544). Assays were run for 22-24 hours at 25-27° C. After this time, living and dead nauplii were counted using a Bogorov tray. Nauplii that were approaching death were scored as dead. Data for all assays was combined and LD50 was calculated (where possible) using a probit analysis (Libermann, 1983). If LD50 could not be calculated using probit analysis, values were extrapolated based on plotted data.

[2] = anti-settlement, barnacle cyprids, 24 hours, concentration causing 50% reduction in settlement vs controls, read-out: ED50 (the source's name)
[3] = Amphibalanus amphitrite (barnacle), stage II naupliar larvae, in vivo
[4] = anti-settlement, barnacle cyprids, 24 hours, concentration causing 50% reduction in settlement vs controls

| SMILES | IC50 (barnacle cyprids; [2]) [µg/mL] | TR (LD50/ED50) (barnacle cyprids) | LD50 [1, 3] [µg/mL] | ED50 (barnacle cyprids; [4]) [µg/mL] | IC50 (barnacle cyprids; read-out: ED50) [µg/mL] | LD50 ([1]; toxicity, barnacle nauplii, 22-24 hours, 0-50 μg/ml) [µg/mL] |
| --- | --- | --- | --- | --- | --- | --- |
| CCCCC(C(=O)N1CCCCC1)c1ccccc1 (centres unmarked) [Compound 12.1, reference compound] | 1.5 (≈ 5.78 µM) | 6.07 | 9.11 |  |  |  |
| C=CCCCCC(C(=O)N1CCCCC1)c1ccc(OC)cc1 (centres unmarked) [Compound 17.1, 2-(4-methoxyoxyphenyl)-1-(piperidin-1-yl)oct-7-en-1-one] | 2.37 (≈ 7.51 µM) | 3.91 | 9.27 |  |  |  |
| CCCCC(C(=O)N1CCCCC1)c1cccc(O)c1 (centres unmarked) [Compound 17.5] | 3.44 (≈ 12.5 µM) | 7.31 | 25.14 |  |  |  |
| CCCCC(C(=O)N(C)C)c1ccc(O)cc1 (centres unmarked) [Compound 17.7, 2-(4-hydroxyphenyl)-N,N-dimethylhexanamide] | 34.1 (≈ 145 µM) | >1.46 | >50 |  |  |  |
| CCCCC(C(=O)N1CCCCC1)c1ccccc1CO (single isomer, unassigned) [Compound 16.1] |  | >12.17 | >50 | 4.11 (≈ 14.2 µM) |  |  |
| CCCCC(C(=O)N1CCCCC1)c1ccc(OCC(=O)OC)cc1 (centres unmarked) [Compound 16.7, Methyl 2-(4-(1-oxo-1-(piperidin-1-yl)hexan-2-yl)phenoxy)acetate] | 26.9 (≈ 77.4 µM) | 0.91 | 24.58 |  |  |  |
| CCCCC(CCCC)C(=O)N1CCCCC1 [Compound 12.2, reference compound] | 2 (≈ 8.35 µM) | 4.92 | 9.83 |  |  |  |
| CCCCC(C(=O)N1CCCCC1)c1ccc(O)cc1 (centres unmarked) [Compound 16.5, 2-(4-hydroxyphenyl)-1-(piperidin-1-yl)hexan-1-one] | 0.19 (≈ 0.69 µM) | 90.26 | 17.15 |  |  |  |
| CCCCC(C(=O)N1CCCCC1)c1ccc(C(=O)O)cc1 (centres unmarked) [Compound 17.9, 4-(1-oxo-1-(piperidin-1-yl)hexan-2-yl)benzoic acid] | > 50 | 1 | >50 |  |  |  |
| CCCCC(C(=O)N1CCCCC1)c1ccc(OCCO)cc1 (centres unmarked) [Compound 16.6, 2-(4-(2-hydroxyethoxy)phenyl)-1-(piperidin-1-yl)hexan-1-one] | 9.25 (≈ 29 µM) | >5.41 | >50 |  |  |  |
| CCCCC(C(=O)N1CCCCC1)c1ccc(OCC[Si](C)(C)C)cc1 (centres unmarked) [Compound 16.10, 1-(piperidin-1-yl)-2-(4-(2-(trimethylsilyl)ethoxy)phenyl)hexan-1-one] |  | >14.33 |  |  | 3.49 (≈ 9.29 µM) | >50 |
| C=CCCCCC(C(=O)N1CCCCC1)c1ccc(O)cc1 (centres unmarked) [Compound 17.6, 2-(4-hydroxyphenyl)-1-(piperidin-1-yl)oct-7-en-1-one] | 2.14 (≈ 7.1 µM) | 4.59 | 9.82 |  |  |  |
| CCCCC(C(=O)N1CCCCC1)c1ccc(OC(C)=O)cc1 (centres unmarked) [Compound 16.4, 4-(1-oxo-1-(piperidin-1-yl)hexan-2-yl)phenyl acetate] | 0.23 | 118.26 | 27.2 |  |  |  |
| CCCCC(C(=O)N1CCCCC1)c1cc(OC)ccc1OC (centres unmarked) [Compound 15.5] | 2.16 (≈ 6.76 µM) | 4.01 | 8.66 |  |  |  |
| CCCCC(C(=O)N1CCCCC1)c1ccc(OC)cc1OC (single isomer, unassigned) [Compound 15.6] |  | 3.64 | 33.21 | 9.12 (≈ 28.5 µM) |  |  |
| CCCCC(C(=O)N1CCCCC1)c1ccccc1O (centres unmarked) [Compound 17.4] | 0.65 (≈ 2.36 µM) | 22.49 | 14.62 |  |  |  |
| C=CCCCCC(C(=O)N(C)C)c1ccc(OC)cc1 (centres unmarked) [Compound 17.3, 2-(4-methoxyphenyl)-N,N-dimethyloct-7-enamide] | 2.85 (≈ 10.3 µM) | 6.53 | 18.61 |  |  |  |
| CCCCC(C(=O)N1CCCCC1)c1cccc(OC)c1 (centres unmarked) [Compound 15.2] | 1.46 (≈ 5.04 µM) | >17.12 | >25 |  |  |  |
| CCCCC(C(=O)N1CCCCC1)c1ccc(OC)cc1 (centres unmarked) [Compound 15.1, 2-(4-methoxy)phenyl-(1-piperidin-1-yl)hexanone] | 0.19 (≈ 0.656 µM) | 120.79 | 22.95 |  |  |  |
| C=CC(=O)Oc1ccc(C(CCCC)C(=O)N2CCCCC2)cc1 (centres unmarked) [Compound 16.11, 4-(1-oxo-1-(piperidin-1-yl)hexan-2-yl)phenyl acrylate] | 1.53 (≈ 4.64 µM) | 4.29 | 6.57 |  |  |  |
| CCCCC(C(=O)N1CCCCC1)c1ccc(OCCOC(C)=O)cc1 (centres unmarked) [Compound 16.8, 2-(4-(1-oxo-1-(piperidin-1-yl)hexan-2-yl)phenoxy)ethyl acetate] | 29.1 | 1.72 | >50 |  |  |  |
| CCCCC(C(=O)N1CCCCC1)c1cc(OC)cc(OC)c1 (centres unmarked) [Compound 15.4] | 3.29 (≈ 10.3 µM) | 2.5 | 8.22 |  |  |  |
| CCCCC(C(=O)N(C)C)c1ccc(OC)cc1 (centres unmarked) [Compound 17.2, 2-(4-methoxyphenyl)-N,N-dimethylhexanamide] | 8.69 (≈ 34.9 µM) | >5.75 | >50 |  |  |  |
| CCCCC(C(=O)N1CCCCC1)c1ccc(OCC(=O)O)cc1 (centres unmarked) [Compound 16.9, 2-(4-(1-oxo-1-(piperidin-1-yl)hexan-2-yl)phenoxy)acetic acid] | > 50 |  | >50 |  |  |  |
| C=CCCCCC(C(=O)N(C)C)c1ccc(O)cc1 (centres unmarked) [Compound 17.8, 2-(4-hydroxyphenyl)-N,N-dimethyloct-7-enamide] | 4.29 (≈ 16.4 µM) | 2.90 | 12.46 |  |  |  |
| CCCCC(C(=O)N1CCCCC1)c1ccccc1OC (centres unmarked) [Compound 15.3] | 2.85 (≈ 9.85 µM) | 1.29 | 3.67 |  |  |  |
